Data on one compound can be found in patent US5795561A, “Radioiodinated phospholipid ether analogues” (The Board of Regents of the University of Michigan, priority 1994, dated 1998).

One data set relates to Walker 256 sarcomas. Kind of data set: In vivo tumor localization in rats with intramuscular Walker 256 sarcomas (Example 8). As to conditions: intravenous injection. Set-up: species or system Sprague-Dawley rats. As for the experimental part: 12-(m-Iodophenyl)dodecyl phosphocholine (compound 50) was administered by intravenous injection to Sprague-Dawley rats with intramuscular Walker 256 sarcomas and athymic nude mice with subcutaneous human tumors, specifically, human HTB 77 ovarian adenocarcinoma, NCI 69 human small cell carcinoma, and human HTB 63 melanoma.

The test system of data set [1] is human HTB 77 ovarian adenocarcinoma, NCI 69 human small cell carcinoma, and human HTB 63 melanoma. Kind of data set: In vivo tumor localization and scintigraphy in athymic nude mice with subcutaneous human tumors (Example 8).
The subject of data set [2] is HTB 63 human melanoma tumors. Briefly: Tissue distribution in nude mice bearing HTB 63 human melanoma tumors (FIG. 18). It counts as in vivo. Particulars: 13 days post-injection (FIG. 18). The text has this: FIG. 18 is a bar graph showing tissue distribution of radioiodinated 12-(m-iodophenyl)-dodecyl phosphocholine in nude mice bearing HTB 63 human melanoma tumors at 13 days post-injection.
FIG. 18 is a bar graph which vividly illustrates the relative difference in tissue concentration of compound 50 in nude mice bearing HTB 63 human melanoma tumors at 13 days post-injection. The tissue concentration in the tumor tissue is remarkable.

The test system of the next data set is human tumor models. Briefly: Tissue distribution in athymic mice human tumor models (FIG. 17). The data set is classed as in vivo, athymic nude mice. Particulars: 13 days post-administration, % dose/gram of tissue plotted (FIG. 17). As for the experimental part:
FIG. 17 is a bar graph showing tissue distribution in the blood, liver, and specified tumor tissue of radioiodinated 12-(m-iodophenyl)-dodecyl phosphocholine in nude mice 13 days post-administration; and
Tumor:blood levels greater than 25:1 were recorded in all athymic mice human tumor models.
FIG. 17 is a bar graph showing the tissue distribution in the blood, liver, and specified tumor tissue of compound 50 in nude mice 13 days post-administration. The data is expressed in terms of % dose/gram of tissue.

Regarding `C[N+](C)(C)CCOP(=O)([O-])OCCCCCCCCCCCCc1cccc(I)c1` [compound 50, 12-(m-iodophenyl)-dodecyl phosphocholine], the tumor localization result (in the data set on Walker 256 sarcomas; in data set [1] (intravenous injection)) was “excellent tumor localization” throughout. In addition, the “clearance of background activity” value in data set [1] (beyond five days post-injection) is “all background activity had cleared from the liver and gastrointestinal tract”. Moreover, the “tissue concentration in the tumor tissue” value in data set [2] is recorded as “remarkable”. For the same compound, the “tissue distribution in blood, liver and specified tumor tissue” value in the data set with human tumor models is “the tumor contained the largest amount of radioactivity”.
